In article PMC9403976, “Elucidating the path to Plasmodium prolyl-tRNA synthetase inhibitors that overcome halofuginone resistance” (Nature Communications, 2022):
Several values for one entry are separate records, joined by “and”; a condition that tells them apart may be missing. Equal values may be shown once. Read-outs that look alike come from different tables or passages of the source.

Columns and labels:
[1] = tested on: P. falciparum Dd2-2D4; experiment: P. falciparum asexual blood stage (ABS) growth assay, SYBR Green, 72 h, wild-type parasites; assay type: cell-based, Plasmodium falciparum; conditions: Plasmodium falciparum, DD2; SI Fig 16b; values on -log scale; read-out: ABS - Dd2-2D4 (converted)
[2] = target: T1, PfcProRS (Plasmodium falciparum, UniProt Q8I5R7); assay type: binding; conditions: single replicates
T1 construct: made in house; host or cells: E. coli SoluBL-21
T1 sequence (Q8I5R7 249-746): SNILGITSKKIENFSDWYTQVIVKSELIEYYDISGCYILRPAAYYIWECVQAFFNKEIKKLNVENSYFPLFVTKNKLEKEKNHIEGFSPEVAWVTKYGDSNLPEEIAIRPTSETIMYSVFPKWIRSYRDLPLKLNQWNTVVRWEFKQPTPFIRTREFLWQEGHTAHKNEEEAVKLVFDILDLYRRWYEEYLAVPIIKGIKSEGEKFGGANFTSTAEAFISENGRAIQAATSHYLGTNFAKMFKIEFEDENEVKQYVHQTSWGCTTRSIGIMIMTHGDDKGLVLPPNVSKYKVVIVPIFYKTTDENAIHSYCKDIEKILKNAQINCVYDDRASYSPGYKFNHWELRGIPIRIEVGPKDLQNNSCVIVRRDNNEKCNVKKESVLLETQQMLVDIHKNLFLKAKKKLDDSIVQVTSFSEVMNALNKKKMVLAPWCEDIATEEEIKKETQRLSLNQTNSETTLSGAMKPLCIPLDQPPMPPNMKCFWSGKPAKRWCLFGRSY

[3] = target: HsProRS (Homo sapiens, UniProt P07814); experiment: TR-FRET ligand displacement assay with tracer MAT379 (CoraFluor-1-Halo and anti-His6 antibody formats); assay type: binding; design: made in house; host or cells: E. coli SoluBL-21; conditions: for TR-FRET dose-response, normalized signal (SI Fig 11): individual replicates
Sequence of HsProRS (P07814 996-1512): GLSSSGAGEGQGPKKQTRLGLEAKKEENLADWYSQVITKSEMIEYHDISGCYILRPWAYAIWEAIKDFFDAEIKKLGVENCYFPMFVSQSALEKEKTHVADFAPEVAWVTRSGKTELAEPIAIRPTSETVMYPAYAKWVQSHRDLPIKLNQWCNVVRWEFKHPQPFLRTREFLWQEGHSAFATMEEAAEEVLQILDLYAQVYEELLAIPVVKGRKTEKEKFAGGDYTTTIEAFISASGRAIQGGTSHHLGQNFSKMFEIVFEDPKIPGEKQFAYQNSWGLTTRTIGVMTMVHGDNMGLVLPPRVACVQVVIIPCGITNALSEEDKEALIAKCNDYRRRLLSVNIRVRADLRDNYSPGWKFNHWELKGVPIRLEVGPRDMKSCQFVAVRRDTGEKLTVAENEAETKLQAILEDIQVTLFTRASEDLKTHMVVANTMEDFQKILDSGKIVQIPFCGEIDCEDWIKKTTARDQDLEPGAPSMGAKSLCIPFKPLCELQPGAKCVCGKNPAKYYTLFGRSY

NC(=O)Nc1nccnc1C(=O)NC1Cc2ccccc2C1 [compound 23]
EC50 [1]: 12.1 µM | dose-response signal (normalized), SI Fig 8 ([2]; Log[inhibitor] (M) -5.000): 9.53E-01 and 9.58E-01 and 9.22E-01 | dose-response signal (normalized), SI Fig 8 ([2]; Log[inhibitor] (M) -5.301): 9.58E-01 and 1.12E+00 and 1.10E+00 | dose-response signal (normalized), SI Fig 8 ([2]; Log[inhibitor] (M) -5.601): 1.05E+00 and 1.01E+00 and 9.67E-01 | dose-response signal (normalized), SI Fig 8 ([2]; Log[inhibitor] (M) -5.904): 9.75E-01 and 1.01E+00 and 9.11E-01 | dose-response signal (normalized), SI Fig 8 ([2]; Log[inhibitor] (M) -6.208): 1.13E+00 and 1.21E+00 and 1.04E+00 | dose-response signal (normalized), SI Fig 8 ([2]; Log[inhibitor] (M) -6.509): 1.02E+00 and 1.09E+00 and 1.04E+00 | dose-response signal (normalized), SI Fig 8 ([2]; Log[inhibitor] (M) -6.796): 1.08E+00 and 1.02E+00 and 1.06E+00 | dose-response signal (normalized), SI Fig 8 ([2]; Log[inhibitor] (M) -7.108): 9.85E-01 and 1.02E+00 and 9.97E-01 | dose-response signal (normalized), SI Fig 8 ([2]; Log[inhibitor] (M) -7.409): 9.53E-01 and 1.06E+00 and 1.07E+00 | dose-response signal (normalized), SI Fig 8 ([2]; Log[inhibitor] (M) -7.710): 9.44E-01 and 1.06E+00 and 1.08E+00 | dose-response signal (normalized), SI Fig 8 ([2]; Log[inhibitor] (M) -8.000): 9.87E-01 and 9.72E-01 and 1.16E+00 | dose-response signal (normalized), SI Fig 8 ([2]; Log[inhibitor] (M) -8.301): 1.10E+00 and 1.12E+00 and 1.02E+00 | dose-response signal (normalized), SI Fig 8 ([2]; Log[inhibitor] (M) -8.602): 9.87E-01 and 1.09E+00 and 1.12E+00 | dose-response signal (normalized), SI Fig 8 ([2]; Log[inhibitor] (M) -9.000): 1.08E+00 and 9.51E-01 and 1.17E+00 | dose-response signal (normalized), SI Fig 8 ([2]; Log[inhibitor] (M) -9.301): 9.82E-01 and 1.20E+00 and 1.04E+00 | IC50 [3]: > 10 µM | HsProRS % signal at 10 μM, + 100 μM proline ([3]; + 100 μM proline, 10 μM): 78.4% | normalized TR-FRET ligand displacement signal, dose-response replicates (SI Fig 6) ([3]; Log[inhibitor] (M) -5.000): 9.23E-01 and 9.68E-01 and 8.88E-01 | TR-FRET dose-response, normalized signal (SI Fig 11) ([3]; Log[inhibitor] (M) -5.000): 8.87E-01 and 8.66E-01 and 9.17E-01 | normalized TR-FRET ligand displacement signal, dose-response replicates (SI Fig 6) ([3]; Log[inhibitor] (M) -5.301): 9.33E-01 (2×) and 1.11E+00 | TR-FRET dose-response, normalized signal (SI Fig 11) ([3]; Log[inhibitor] (M) -5.301): 9.05E-01 and 8.98E-01 and 9.19E-01 | normalized TR-FRET ligand displacement signal, dose-response replicates (SI Fig 6) ([3]; Log[inhibitor] (M) -5.601): 9.64E-01 and 1.03E+00 and 9.59E-01 | TR-FRET dose-response, normalized signal (SI Fig 11) ([3]; Log[inhibitor] (M) -5.601): 9.98E-01 and 9.77E-01 and 1.05E+00 | normalized TR-FRET ligand displacement signal, dose-response replicates (SI Fig 6) ([3]; Log[inhibitor] (M) -5.904): 1.09E+00 and 1.01E+00 and 9.81E-01 | TR-FRET dose-response, normalized signal (SI Fig 11) ([3]; Log[inhibitor] (M) -5.904): 1.00E+00 and 9.89E-01 and 1.01E+00 | normalized TR-FRET ligand displacement signal, dose-response replicates (SI Fig 6) ([3]; Log[inhibitor] (M) -6.208): 9.87E-01 and 1.09E+00 and 1.03E+00 | TR-FRET dose-response, normalized signal (SI Fig 11) ([3]; Log[inhibitor] (M) -6.208): 9.53E-01 and 1.02E+00 and 9.38E-01 | normalized TR-FRET ligand displacement signal, dose-response replicates (SI Fig 6) ([3]; Log[inhibitor] (M) -6.509): 9.55E-01 and 1.02E+00 and 8.65E-01 | TR-FRET dose-response, normalized signal (SI Fig 11) ([3]; Log[inhibitor] (M) -6.509): 1.01E+00 and 1.02E+00 and 9.66E-01 | normalized TR-FRET ligand displacement signal, dose-response replicates (SI Fig 6) ([3]; Log[inhibitor] (M) -6.796): 1.06E+00 and 9.70E-01 and 9.00E-01 | TR-FRET dose-response, normalized signal (SI Fig 11) ([3]; Log[inhibitor] (M) -6.796): 1.06E+00 and 1.02E+00 and 1.01E+00 | normalized TR-FRET ligand displacement signal, dose-response replicates (SI Fig 6) ([3]; Log[inhibitor] (M) -7.108): 9.62E-01 and 9.53E-01 and 1.03E+00 | TR-FRET dose-response, normalized signal (SI Fig 11) ([3]; Log[inhibitor] (M) -7.108): 9.79E-01 and 1.00E+00 and 1.02E+00 | normalized TR-FRET ligand displacement signal, dose-response replicates (SI Fig 6) ([3]; Log[inhibitor] (M) -7.409): 9.73E-01 and 9.58E-01 and 1.07E+00 | TR-FRET dose-response, normalized signal (SI Fig 11) ([3]; Log[inhibitor] (M) -7.409): 1.02E+00 (2×) and 1.04E+00 | normalized TR-FRET ligand displacement signal, dose-response replicates (SI Fig 6) ([3]; Log[inhibitor] (M) -7.710): 1.04E+00 and 9.48E-01 and 1.10E+00 | TR-FRET dose-response, normalized signal (SI Fig 11) ([3]; Log[inhibitor] (M) -7.710): 1.01E+00 and 1.04E+00 and 9.76E-01 | normalized TR-FRET ligand displacement signal, dose-response replicates (SI Fig 6) ([3]; Log[inhibitor] (M) -8.000): 1.00E+00 (2×) and 1.06E+00 | TR-FRET dose-response, normalized signal (SI Fig 11) ([3]; Log[inhibitor] (M) -8.000): 9.60E-01 and 1.00E+00 (2×) | normalized TR-FRET ligand displacement signal, dose-response replicates (SI Fig 6) ([3]; Log[inhibitor] (M) -8.301): 9.32E-01 and 1.07E+00 and 9.64E-01 | TR-FRET dose-response, normalized signal (SI Fig 11) ([3]; Log[inhibitor] (M) -8.301): 1.00E+00 and 9.88E-01 and 1.08E+00 | normalized TR-FRET ligand displacement signal, dose-response replicates (SI Fig 6) ([3]; Log[inhibitor] (M) -8.602): 1.06E+00 and 1.00E+00 and 1.07E+00 | TR-FRET dose-response, normalized signal (SI Fig 11) ([3]; Log[inhibitor] (M) -8.602): 1.00E+00 and 1.01E+00 and 9.76E-01 | normalized TR-FRET ligand displacement signal, dose-response replicates (SI Fig 6) ([3]; Log[inhibitor] (M) -9.000): 1.03E+00 (2×) and 9.79E-01 | TR-FRET dose-response, normalized signal (SI Fig 11) ([3]; Log[inhibitor] (M) -9.000): 1.00E+00 and 9.57E-01 and 9.73E-01 | normalized TR-FRET ligand displacement signal, dose-response replicates (SI Fig 6) ([3]; Log[inhibitor] (M) -9.301): 1.02E+00 (2×) and 9.65E-01 | TR-FRET dose-response, normalized signal (SI Fig 11) ([3]; Log[inhibitor] (M) -9.301): 9.83E-01 and 9.76E-01 and 9.75E-01 | HsProRS % signal at 10 μM ([3]; no added proline/ATP (-), 10 μM): 89.0% | IC50 ([3]; read-out: HsProRS IC50 + 100 μM proline, + 100 μM proline): > 10 µM
